Columns and labels:
slime = assay: ninhydrin reaction of the paper stock filtrate (slime formation); conditions: for slime inhibiting effect: slimecide added in advance to cationic starch, compared with conventional direct addition
Procedure: (§1) A part of the paper stock as obtained above was stored at 32° C. for 7 days and then, filtered by means of a wire screen. The filtrate was subjected to ninhydrin reaction and the effectiveness of the slimecide controlling agent was evaluated based on the result of the ninhydrin reaction. The filtrate was called "Sample 1-2".
Ninhydrin reaction was effected by adding 0.5 ml of a 1% aqueous solution of nonhydrin to 10 ml of the filtrate, and the result was evaluated depending on the degree of color change of the resulting solution to reddish purple.
as §1, with “net.” for “screen.”, “slime” for “slimecide”, “5-2".” for “1-2".”
(§2) Measurement of the sizing degree, evaluation of the mutagenicity, and ninhydrin reaction in Table 3 and Table 4 were conducted in the same manner as in Table 1 and Table 2.

[1] = Stockigt sizing degree of paper according to JIS P 8122; type: physicochemical; conditions: compared with Sample 3-1 and 4-1 (DMTT) or Sample 7-1 and 8-1 (bromonitroalcohol)
Procedure: The paper stock immediately after prepared was used to prepare a hand sheet having a basis weight of 60 g/m^2. The resulting sheet was dried at 80° C. for 5 min. in a hot air drier. The sheet thus prepared was called "Sample 1-1".
In the above, the sizing degree was measured by Testing method for Stockigt sizing degree of paper according to JIS P 8122.
The 0.1% addition of the alkylketene dimer should develop the sizing degree of 20-25 sec. unless other chemicals used together interfere with it.
The paper stock immediately after prepared was used to prepare a handmade sheet having a basis weight of 60 g/m^2. The resulting sheet was dried at 80° C. for 5 min. in a hot air drier. The sheet thus prepared was called "Sample 5-1".
as §2

[2] = test system: Salmonella typyhimurium TA 100; assay: mutagenicity test (reverse mutation test) on hand sheet extract, Ministry of Labor Order No. 261; type: cell-based; conditions: compared with Sample 3-1 and 4-1 (DMTT) or Sample 7-1 and 8-1 (bromonitroalcohol)
Procedure: That is, each hand sheet was subjected to extraction using a mixture of benzene/ethanol (9/1, by volume) at 80° C. for three hours, and the resulting extractant was subjected to a reverse mutation test using Salmonella typyhimurium TA 100 without following a metabolism activating method.
When the number of reverse mutation colony increased to twice or more that in the case of dimethyl sulfoxide used as a control solvent, it was determined "positive".

Compound	slime inhibiting effect (slime)	effect on sizing [1]	safety for man [2]	amount of slimecide relative to amount added in conventional manner (slime; slime inhibition with slimecide added in advance to cationic starch, based on paper stock solid matter)
CN1CSC(=S)N(C)C1 [DMTT, 3,5-dimethyltetrahydro-1,3,5-2H-thiadiazine-2-thione]	excellent slime inhibiting effect	minimal adverse effect on sizing	–	–
O=[N+]([O-])C(Br)(CO)CO [2-bromo-2-nitropropane-1,3-diol]	slime formation can be effectively inhibited	nor adversely affects the sizing property	neither harmful to man	about 1/10
